Experimental data published in publication PMC4795001 (Chemical communications (Cambridge, England), 2015).
Read-outs that look alike come from different tables or passages of the source. One block for each compound: values may come before it.

Legend:
[1] = biological target: T1, holo-TycB1 (recombinant) (Brevibacillus parabrevis, UniProt O30408); test: coupled hydroxamate-MesG continuous spectrophotometric assay; type: biochemical
T1 sequence (O30408 1-1080 limits assumed): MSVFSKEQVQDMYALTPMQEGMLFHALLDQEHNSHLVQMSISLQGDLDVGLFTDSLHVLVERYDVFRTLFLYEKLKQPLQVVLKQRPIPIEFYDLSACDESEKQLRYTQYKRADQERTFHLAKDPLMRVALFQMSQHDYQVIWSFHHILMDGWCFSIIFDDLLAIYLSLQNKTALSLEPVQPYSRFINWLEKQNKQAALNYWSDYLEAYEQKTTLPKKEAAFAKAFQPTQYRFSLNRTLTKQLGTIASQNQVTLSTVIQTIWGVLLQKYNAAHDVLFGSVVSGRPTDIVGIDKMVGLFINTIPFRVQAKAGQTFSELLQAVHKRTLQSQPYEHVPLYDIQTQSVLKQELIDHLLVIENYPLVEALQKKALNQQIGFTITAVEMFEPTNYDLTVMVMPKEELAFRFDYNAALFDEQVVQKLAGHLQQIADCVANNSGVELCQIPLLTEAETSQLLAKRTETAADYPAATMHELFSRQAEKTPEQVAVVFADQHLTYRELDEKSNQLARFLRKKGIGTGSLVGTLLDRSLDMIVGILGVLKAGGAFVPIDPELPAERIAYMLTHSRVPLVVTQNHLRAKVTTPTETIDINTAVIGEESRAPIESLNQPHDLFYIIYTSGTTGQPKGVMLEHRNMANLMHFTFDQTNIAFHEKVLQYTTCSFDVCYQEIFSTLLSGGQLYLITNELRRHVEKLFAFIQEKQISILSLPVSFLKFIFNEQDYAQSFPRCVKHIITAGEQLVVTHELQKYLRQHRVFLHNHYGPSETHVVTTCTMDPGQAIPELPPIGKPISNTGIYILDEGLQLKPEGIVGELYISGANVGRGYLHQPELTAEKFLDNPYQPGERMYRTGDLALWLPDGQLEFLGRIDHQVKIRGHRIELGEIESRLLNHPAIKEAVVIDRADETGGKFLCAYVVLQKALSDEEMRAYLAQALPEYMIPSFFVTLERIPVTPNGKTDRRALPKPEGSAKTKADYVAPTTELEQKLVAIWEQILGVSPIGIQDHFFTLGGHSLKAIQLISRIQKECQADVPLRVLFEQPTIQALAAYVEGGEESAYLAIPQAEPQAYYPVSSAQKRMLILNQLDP

[2] = biological target: T2, holo-GrsA (recombinant) (Aneurinibacillus migulanus, UniProt P0C061); test: as above; type: biochemical; details: read-out: Ki^app; tight-binding; A domain active site
T2 sequence (P0C061 1-1098): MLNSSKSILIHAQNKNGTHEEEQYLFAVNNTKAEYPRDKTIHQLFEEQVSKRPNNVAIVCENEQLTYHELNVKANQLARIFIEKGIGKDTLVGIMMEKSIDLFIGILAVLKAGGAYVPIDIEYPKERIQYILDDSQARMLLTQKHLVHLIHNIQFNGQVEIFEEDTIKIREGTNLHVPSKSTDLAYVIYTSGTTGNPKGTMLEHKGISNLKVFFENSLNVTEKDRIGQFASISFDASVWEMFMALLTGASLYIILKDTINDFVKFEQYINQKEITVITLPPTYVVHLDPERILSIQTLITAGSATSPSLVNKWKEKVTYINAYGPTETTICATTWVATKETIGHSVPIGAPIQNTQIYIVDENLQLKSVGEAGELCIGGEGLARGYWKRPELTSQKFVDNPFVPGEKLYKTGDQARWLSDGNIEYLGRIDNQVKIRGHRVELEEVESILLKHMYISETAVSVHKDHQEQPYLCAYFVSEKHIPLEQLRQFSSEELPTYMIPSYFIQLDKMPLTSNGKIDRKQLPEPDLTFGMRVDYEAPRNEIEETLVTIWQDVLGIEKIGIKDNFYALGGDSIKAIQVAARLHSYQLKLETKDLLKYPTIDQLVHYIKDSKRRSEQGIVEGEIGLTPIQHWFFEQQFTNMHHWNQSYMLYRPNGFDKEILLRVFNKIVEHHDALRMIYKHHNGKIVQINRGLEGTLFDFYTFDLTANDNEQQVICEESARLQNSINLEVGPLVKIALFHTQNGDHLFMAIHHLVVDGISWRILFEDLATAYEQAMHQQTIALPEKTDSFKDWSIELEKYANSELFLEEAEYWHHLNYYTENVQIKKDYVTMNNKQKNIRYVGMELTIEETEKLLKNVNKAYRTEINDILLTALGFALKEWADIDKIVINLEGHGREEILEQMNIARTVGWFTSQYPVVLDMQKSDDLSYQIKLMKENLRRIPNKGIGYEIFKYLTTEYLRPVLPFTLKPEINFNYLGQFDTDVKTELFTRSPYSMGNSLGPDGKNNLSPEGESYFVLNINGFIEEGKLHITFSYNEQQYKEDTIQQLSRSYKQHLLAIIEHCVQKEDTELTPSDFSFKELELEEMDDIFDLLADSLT

Ki ([1]; read-out: Ki^app, tight-binding, A domain active site): 327 ± 17 nM
Compound: L-Pro-AMS-BPyne [compound 2]

Ki [1]: 431 ± 42 nM
Compound: Nc1ncnc2c1ncn2[C@@H]1O[C@H](COS(=O)(=O)NC(=O)[C@@H]2CCCN2)[C@@H](O)[C@H]1O [compound 5, L-Pro-AMS]

Ki [2]: 1.43 ± 0.19 nM
Compound: L-Phe-AMS-BPyne [compound 1]
